Source: article PMC3457943, “Inhibition of poly(ADP-ribose) Polymerase Interferes with Trypanosoma cruzi Infection and Proliferation of the Parasite” (PLoS ONE, 2012)
Where two headings read alike, the source gives them in different places.

Assays:
T. cruzi amastigotes = tested on: T. cruzi amastigotes; design: method as in PMID 6330132; settings: millimolar concentrations, mainly axenic amastigote cultures; cited from earlier work
TcPARP [1] = target: TcPARP (Trypanosoma cruzi, UniProt Q4PQV7); assay: Homogeneous fluorometric TcPARP activity assay (remaining NAD+); type: biochemical; settings: 10 nM TcPARP, 500 nM NAD+
Protocol: (§1) Enzymatic activity was measured using a fluorometric assay, which quantifies the remaining NAD^+ after the enzymatic reaction, [10]. Briefly, TcPARP was incubated with 500 nM NAD^+ in a 96-well U-bottom black propylene plate (Greiner BioOne) in a final volume of 50 µl. The reaction was carried out at 25°C with shaking at 300 rpm using PST-60 HL plus Thermo Shaker (Biosan, Riga, Latvia). The reaction was terminated by the addition of 20 µl of 2 M KOH and 20 µl of 20% acetophenone in ethanol, and plate was incubated at room temperature for 10 minutes. Next, 90 µl of 88% formic acid was added and the plate was incubated at room temperature for 20 minutes. The fluorescence was measured on a Fluoroskan Ascent FL (Thermo Labsystems, Waltham, MA) using excitation at 355 nm and emission at 460 nm. The activity assay was optimized for TcPARP by assaying the effect of pH, DNA concentration, and various additives for the activity of the protein.
(§2) A small in-house library of known PARP inhibitors was screened to evaluate their inhibitory effect against TcPARP. The inhibitor stock solutions were prepared at 10 mM in 100% DMSO and stored at −20°C, except in the case of 3-aminobenzamide, which was prepared at a stock concentration of 1 M in 100% DMSO. The compounds were screened in duplicates at 10 µM and 1 µM concentrations with separate controls for each including only NAD^+ and the compound, but not TcPARP. The protein concentration in the reactions was 10 nM.
(§3) The IC50 value for the first generation PARP inhibitor 3-AB was determined as a reference value. The separate data points were measured in quadruplicates. […] The fluorescence signal was converted to inhibition percentage and fitted using sigmoidal dose-response fitting with variable slope (Graphpad Prism). The curves were extrapolated to 0% and 100% of inhibition by setting their inhibitor concentration 2 log units below or above the first and the last inhibitor concentration, respectively.

hPARP-1 = settings: cited from earlier work
T. cruzi epimastigotes [2] = tested on: T. cruzi epimastigotes; design: method as in PMID 17936287; settings: millimolar concentrations; cited from earlier work
T. cruzi epimastigotes [3] = assay: Epimastigote growth inhibition assay (OD 600 nm); type: cell-based, Trypanosoma cruzi
Protocol: T. cruzi epimastigotes were grown in LIT complete medium for 4 days up to a parasite density of 10^7 parasites/ml. The culture was placed in 96-well sterile plates in 100 µl aliquots and PARP inhibitors were added. Nifurtimox and β-lapachone were used as control compounds. DMSO control was used at 1% v/v concentration. Optical density of the cultures was determined at 600 nm each day for four days to follow parasite growth. Controls for LIT growth medium bearing no parasites were also performed. In all experiments performed, conditions were tested in triplicates. Significance of the results were analysed with one-way ANOVA using GraphPad Prism version 5.03 for Windows (GraphPad Software).

[4] = tested on: pADPr formation in T. cruzi epimastigotes; assay: In vivo inhibition of pADPr formation in epimastigotes challenged with hydrogen peroxide (Western blot); type: cell-based, Trypanosoma cruzi; settings: 30 min pre-incubation, 300 µM hydrogen peroxide 10 min
Protocol: Cell viability was assessed by direct microscopic examination.
Trypanosoma cruzi epimastigotes were grown in LIT complete medium for 4 days up to a parasite density of 10^7 parasites/ml. Parasites were collected by centrifugation at 750×g for 5 minutes and resuspended in PBS-Glucose 2%. T. cruzi epimastigotes were pre-incubated in the presence of inhibitors for 30 minutes and treated with 300 µM hydrogen peroxide for 10 minutes. Cells were harvested by centrifugation at 1500×g, washed with PBS and resuspended in lysis buffer (50 mM Tris–HCl pH 8.0, 1.0 mM EDTA, 10% (v/v) glycerol, 10 mM 2-mercaptoethanol). Protease inhibitors 1 µg/mL trans-epoxysuccinyl-L-leucylamido(4-guanidino) butane (E-64), […], 1 mM phenylmethylsulfonylfluoride (PMSF), and 0.1 mM Na-tosyl-L-lysine chloro-methyl ketone (TLCK) and inhibitor 3-AB (1 mM) were added. Cells were lysed with an Ultrasonic Processor Model W385 Sonicator (Heat Systems-Ultrasonic Inc. Plainview) and the whole extract obtained was used for Western blot. 30 µg of protein were run on 10% SDS–PAGE gel and transferred to Amersham Hybond-ECL nitrocellulose membrane (GE healthcare), according to the manufacturer's instructions. […] The signal was detected with the Western Lightning Plus-ECL (PerkinElmer).

TcPARP [5] = assay: Homogeneous fluorometric TcPARP activity assay (remaining NAD+); type: biochemical, Trypanosoma cruzi; settings: TcPARP IC50 versus literature hPARP-1 IC50
Protocol: as §1, §2, §3

[6] = tested on: pADPr formation in human cells; design: method as in earlier work; settings: cited from earlier work
Vero cells = assay: Growth of uninfected Vero cells; type: cell-based; settings: presence or absence of Olaparib
[7] = tested on: Trypanosoma cruzi infection of A549 wild type cells; assay: Trypanosoma cruzi infection of A549 cells; type: cell-based; settings: 25 nM
Protocol: (§4) Vero cells were cultured in D-MEM medium (Gibco), supplemented with 2 mM L-glutamine, 10% (v/v) FCS, 100 U/ml penicillin and 100 mg/l streptomycin. The wild type (Sigma-Aldrich) and PARP silenced (sh_PARP) pulmonary adenocarcinoma A549 cell lines were provided by Dr. Virág and Dr. Erdélyi, from the University of Debrecen, Hungary. A549 cells were grown in RPMI-1640 medium (Gibco), supplemented with 2 mM L-glutamine, 1 mM Sodium Pyruvate, 10% (v/v) FCS, 100 U/ml penicillin and 100 mg/l streptomycin.
Trypomastigotes were collected by centrifugation of the supernatant of previously infected cultures at 1500×g at room temperature for 7 minutes and incubated for 3 hours at 37°C in order to allow the trypomastigotes to move from the pellet into the supernatant. After this period, the supernatant was collected and trypomastigotes were counted in a Neubauer chamber. […]
The infection was allowed to proceed and growth medium was changed periodically during the first 5 days. […] Amastigotes and cells were counted using the ImageJ software in at least 7 microscopic fields. […] Alternatively, trypomastigotes in the supernatant of the cell cultures were counted without prior fixation on a Neubauer Chamber at the indicated days. […] Significance of the results were analysed with two-way ANOVA using GraphPad Prism version 5.03 for Windows (GraphPad Software).

[8] = tested on: Trypanosoma cruzi infection of Vero cells; assay: Trypanosoma cruzi infection of Vero cells; type: cell-based
Protocol: as §4
Trypomastigotes were collected by centrifugation of the supernatant of previously infected cultures at 1500×g at room temperature for 7 minutes and incubated for 3 hours at 37°C in order to allow the trypomastigotes to move from the pellet into the supernatant. After this period, the supernatant was collected and trypomastigotes were counted in a Neubauer chamber. […] For this, 50 trypomastigotes/cell were added to the medium of 24 hour-old monolayers and incubated for 24 hours at 37°C, after which they were removed by changing the cell culture medium. Infections were performed in the media above indicated, but supplemented with 3% (v/v) FCS.
The infection was allowed to proceed and growth medium was changed periodically during the first 5 days. […] At the indicated days, cells were fixed and stained by May Grünwald Giemsa technique. Cells were visualized using an Olympus BX41 microscope. Amastigotes and cells were counted using the ImageJ software in at least 7 microscopic fields. […] Alternatively, trypomastigotes in the supernatant of the cell cultures were counted without prior fixation on a Neubauer Chamber at the indicated days. All experiments were performed in triplicates. Significance of the results were analysed with two-way ANOVA using GraphPad Prism version 5.03 for Windows (GraphPad Software).

[9] = read-out: TcPARP pIC50±SE (converted)

Sequence of TcPARP (Trypanosoma cruzi, UniProt Q4PQV7) (Q4PQV7 1-592): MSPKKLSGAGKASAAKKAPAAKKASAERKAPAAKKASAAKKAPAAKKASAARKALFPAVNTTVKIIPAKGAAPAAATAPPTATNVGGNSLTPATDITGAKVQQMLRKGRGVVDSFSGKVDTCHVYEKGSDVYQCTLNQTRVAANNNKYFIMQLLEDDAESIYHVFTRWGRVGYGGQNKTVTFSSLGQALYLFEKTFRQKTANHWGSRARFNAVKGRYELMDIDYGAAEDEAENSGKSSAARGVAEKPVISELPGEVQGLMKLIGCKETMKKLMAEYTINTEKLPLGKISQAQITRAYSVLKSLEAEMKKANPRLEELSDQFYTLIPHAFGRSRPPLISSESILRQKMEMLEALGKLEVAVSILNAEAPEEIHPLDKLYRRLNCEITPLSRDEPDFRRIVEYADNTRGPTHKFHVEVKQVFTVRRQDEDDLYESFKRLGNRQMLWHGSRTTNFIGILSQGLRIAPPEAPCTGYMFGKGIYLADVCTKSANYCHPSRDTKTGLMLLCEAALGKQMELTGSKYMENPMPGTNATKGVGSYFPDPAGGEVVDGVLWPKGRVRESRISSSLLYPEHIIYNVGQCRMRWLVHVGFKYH

| Compound | IC50 (TcPARP [1]; read-out: TcPARP IC50) [nM] | IC50 (TcPARP [1]; [9]) [nM] | IC50 (hPARP-1) [nM] | further results |
| --- | --- | --- | --- | --- |
| COc1cccc(C(N)=O)c1 [3-methoxybenzamide] | – | – | – | inhibition of differentiation of amastigotes to trypomastigotes (T. cruzi amastigotes): able to inhibit differentiation of amastigotes to trypomastigotes |
| NC(=O)c1cccc2ncc(-c3ccc(Cl)cc3)nc12 [CNQ, 3-(4-chlorophenyl)quinoxaline-5-carboxamide] | 170 | 174 | 33 | – |
| NC(=O)c1cccc(N)c1 [Compound 3-AB, 3-aminobenzamide] | 26000 | 26300 | 33000 | inhibition of differentiation of amastigotes to trypomastigotes (T. cruzi amastigotes): to a lesser extent; effect on T. cruzi epimastigote growth (T. cruzi epimastigotes [2]): able to reduce T. cruzi epimastigote growth; reduction of parasite growth compared to the control (T. cruzi epimastigotes [3]; 660 µM): approximately 60%; reduction of parasite growth compared to the control (T. cruzi epimastigotes [3]; 6.6 mM): approximately 60% |
| Nc1ccc2c3c(cccc13)C(=O)NC2=O [Compound 4-ANI, 8-amino-3-azatricyclo[7.3.1.0^{5,13}]trideca-1(12),5,7,9(13),10-pentaene-2,4-dione] | 43 | 42.7 | 22 | inhibition of pADPr formation in parasites ([4]; 215 nM): did not show complete inhibition |
| Cc1nc2c(c(=O)[nH]1)CSCC2 [DR2313, 2-methyl-1H,4H,5H,7H,8H-thiopyrano[4,3-d]pyrimidin-4-one] | 1400 | 1380 | – | – |
| Nc1ncnc2c1ncn2[C@@H]1O[C@H](C(=O)N2CCN(CC(=O)Nc3cccc4c3CNC4=O)CC2)[C@@H](O)[C@H]1O [EB-47, 2-(4-{[(2S,3S,4R,5R)-5-(6-amino-9H-purin-9-yl)-3,4-dihydroxyoxolan-2-yl]carbonyl}piperazin-1-yl)-N-(1-oxo-2,3-dihydro-1H-isoindol-4-yl)acetamide] | – | – | 45 | selectivity for TcPARP over hPARP-1 (TcPARP [5]): approximately five-fold; inhibition of pADPr formation in parasites ([4]; 43 nM): did not inhibit TcPARP at all; inhibition of pADPr formation in human cells [6]: inhibit pADPr formation |
| CC1CS(=O)(=O)CCN1/N=C/c1ccc([N+](=O)[O-])o1 (centres unmarked) [Nifurtimox] | – | – | – | effect on epimastigote growth (T. cruzi epimastigotes [3]; 2.5 µM): small effect |
| O=C(c1cc(Cc2n[nH]c(=O)c3ccccc23)ccc1F)N1CCN(C(=O)C2CC2)CC1 [Olaparib, 4-({3-[(4-cyclopropanecarbonylpiperazin-1-yl)carbonyl]-4-fluorophenyl}methyl)-1,2-dihydrophthalazin-1-one] | 3.4 | 3.39 | – | growth of uninfected Vero cells (Vero cells): did not alter the growth of the cell line; number of amastigotes per cell ([7]; day 6 post-infection): markedly decreased; number of trypomastigotes in the growth medium ([7]; day 9 post-infection): no significant difference; number of trypomastigotes in the supernatant ([8]; 25 nM): no significant difference; number of amastigotes per cell ([8]; 25 nM in growth medium): decrease in the number of amastigotes per cell; % of Infected Cells, Day 2 ([8]; Olaparib 25 nM, mean±SD): 38.67±7.68%; % of Infected Cells, Day 4 ([8]; Olaparib 25 nM, mean±SD): 13.54±3.40 %; % of Infected Cells, Day 6 ([8]; Olaparib 25 nM, mean±SD): 22.03±2.36 %; decrease in growth of the parasites (T. cruzi epimastigotes [3]; 25 nM): 50%; effect on epimastigote growth (T. cruzi epimastigotes [3]; 25 nM): diminished epimastigote growth significantly |
| O=c1[nH]c2ccccc2c2ccccc12 [Phenanthridinone, 5,6-dihydrophenanthridin-6-one] | 1600 | 1620 | 560 | – |
| CNCc1ccc(-c2[nH]c3cc(F)cc4c3c2CCNC4=O)cc1 [Rucaparib, 6-fluoro-2-{4-[(methylamino)methyl]phenyl}-3,10-diazatricyclo[6.4.1.0^{4,13}]trideca-1,4(13),5,7-tetraen-9-one] | 25 | 25.7 | – | – |
| C[C@]1(c2nc3c(C(N)=O)cccc3[nH]2)CCCN1 [Veliparib, 2-[(2R)-2-methylpyrrolidin-2-yl]-1H-1,3-benzodiazole-4-carboxamide] | 83 | 83.2 | – | Ki (hPARP-1): 5 nM |
| CC1(C)CCC2=C(O1)c1ccccc1C(=O)C2=O [β-lapachone] | – | – | – | effect on epimastigote growth (T. cruzi epimastigotes [3]; 2.5 µM): small effect |

Second part, led by results:

| IC50 (TcPARP [1]; read-out: TcPARP IC50) [nM] | IC50 (TcPARP [1]; [9]) [nM] | Compound | IC50 (hPARP-1) [nM] | further results |
| --- | --- | --- | --- | --- |
| 180 | – | Cn1cccc1/C=C1\C(=O)NC(=O)c2ccccc21 [BYK204165, (4Z)-4-[(1-methyl-1H-pyrrol-2-yl)methylidene]-1,2,3,4-tetrahydroisoquinoline-1,3-dione] | 45 | TcPARP pIC50±SE (TcPARP [1]): 6.74±0,090 |
| 230 | 224 | CN(C)CC(=O)Nc1ccc2[nH]c(=O)c3ccccc3c2c1 [PJ-34, 2-(dimethylamino)-N-(6-oxo-5,6-dihydrophenanthridin-2-yl)acetamide] | – | – |
| 1300 | 1260 | Oc1nc(C2CC2)nc2c1CSCC2 [RF03876, 2-cyclopropyl-5H,7H,8H-thiopyrano[4,3-d]pyrimidin-4-ol] | – | – |
